Data as given in US10059701B2 (Merck Patent GmbH, priority 2015, dated 2018).

Assays:
[1] = target: T1, IRAK1 (Homo sapiens, UniProt P51617); test: IRAK1 enzymatic assay (ADP-Glo luminescence); assay type: biochemical; settings: purified human recombinant His-TEV-IRAK1 (194-712)
T1 construct: His-TEV-IRAK1 (194-712); His (N); TEV cleavage site (N)
In short: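 Luminescent ADP-Glo read-out of ATP turnover by purified His-TEV-IRAK1 (194-712) at 0.3 μg/ml after a 2-hour RT reaction. Compounds, serially diluted from 10 μM to 0.5 nM, were preincubated with enzyme 15 minutes in Hepes pH 7.0 buffer with MgCl2, DTT, EGTA and Triton X-100.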

[2] = target: T2, IRAK4 (Homo sapiens, UniProt Q9NWZ3); test: IRAK4 enzymatic assay (ADP-Glo luminescence); assay type: biochemical; settings: purified human recombinant His-TEV-IRAK4 (1-460), ATP 2 μM
T2 construct: His-TEV-IRAK4 (1-460); His (N); TEV cleavage site (N)
T2 sequence (Q9NWZ3 1-460): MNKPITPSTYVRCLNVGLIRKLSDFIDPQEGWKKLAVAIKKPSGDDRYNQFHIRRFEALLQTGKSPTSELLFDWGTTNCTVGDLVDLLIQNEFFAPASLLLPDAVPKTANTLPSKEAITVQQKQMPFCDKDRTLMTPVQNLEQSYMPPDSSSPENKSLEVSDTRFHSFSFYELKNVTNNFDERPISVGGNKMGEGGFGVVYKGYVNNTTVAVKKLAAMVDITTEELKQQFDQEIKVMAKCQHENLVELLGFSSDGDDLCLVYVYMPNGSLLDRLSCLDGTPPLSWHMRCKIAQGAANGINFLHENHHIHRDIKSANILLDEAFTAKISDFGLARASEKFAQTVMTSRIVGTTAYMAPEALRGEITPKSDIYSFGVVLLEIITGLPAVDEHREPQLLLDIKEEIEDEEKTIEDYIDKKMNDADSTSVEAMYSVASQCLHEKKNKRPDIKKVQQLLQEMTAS
In short: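 ADP-Glo luminescence read-out after a 2 h RT kinase reaction with 2 μM ATP and 300 nM biotinylated STK1 peptide. Enzyme (His-TEV-IRAK4 1-460, 0.3 μg/ml) first incubated 15 min with serially diluted compounds (10 μM–0.5 nM) in 50 mM Hepes pH 7.0, 10 mM MgCl2, 5 mM MnCl2.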

T1 sequence (P51617 194-712): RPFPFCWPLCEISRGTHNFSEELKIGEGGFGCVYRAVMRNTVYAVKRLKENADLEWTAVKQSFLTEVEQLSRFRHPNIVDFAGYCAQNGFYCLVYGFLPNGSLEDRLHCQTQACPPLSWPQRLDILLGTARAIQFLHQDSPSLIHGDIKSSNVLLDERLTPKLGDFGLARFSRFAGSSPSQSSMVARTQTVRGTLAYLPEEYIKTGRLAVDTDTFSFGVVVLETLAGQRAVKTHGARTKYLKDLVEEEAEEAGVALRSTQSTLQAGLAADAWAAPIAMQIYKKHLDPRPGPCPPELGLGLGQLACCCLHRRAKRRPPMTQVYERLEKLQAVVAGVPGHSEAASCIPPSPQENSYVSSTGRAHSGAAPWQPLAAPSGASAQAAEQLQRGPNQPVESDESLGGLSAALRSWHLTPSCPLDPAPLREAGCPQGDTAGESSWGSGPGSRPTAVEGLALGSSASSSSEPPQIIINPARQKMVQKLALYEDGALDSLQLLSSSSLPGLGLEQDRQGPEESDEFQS

Row | SMILES | IC50 [1] [nM] | IC50 [2] [nM]
1 | Cn1nc(C(=O)/N=c2\[nH]c3cc(N4CCOCC4=O)ccc3n2CCCO)c2ccccc21 [Compound 60, (E)-N-(1-(3-hydroxypropyl)-5-(3-oxomorpholino)-1H-benzo[d]imidazol-2(3H)-ylidene)-1-methyl-1H-indazole-3-carboxamide] | > 1000 | > 1000
2 | CSCCn1/c(=N/C(=O)c2cccc(C(F)F)c2)[nH]c2cc(N3CCOCC3=O)ccc21 [Compound 63, (E)-3-(difluoromethyl)-N-(1-(2-(methylthio)ethyl)-5-(3-oxomorpholino)-1H-benzo[d]imidazol-2(3H)-ylidene)benzamide] | 100 to 1000 | ≤ 100
3 | COc1cc2c(cc1N1CCOCC1=O)[nH]/c(=N\C(=O)c1cccc(CO)c1)n2CCCO [Compound 64, (E)-3-(hydroxymethyl)-N-(1-(3-hydroxypropyl)-6-methoxy-5-(3-oxomorpholino)-1H-benzo[d]imidazol-2(3H)-ylidene)benzamide] | 100 to 1000 | ≤ 100
4 | C[C@H](CCO)n1/c(=N/C(=O)c2cccc(OC(F)F)c2)[nH]c2cc(N3CCOCC3=O)ccc21 [Compound 65, (R,E)-3-(difluoromethoxy)-N-(1-(4-hydroxybutan-2-yl)-5-(3-oxomorpholino)-1H-benzo[d]imidazol-2(3H)-ylidene)benzamide] | ≤ 100 | ≤ 100
5 | O=C(/N=c1\[nH]c2cc(N3CCOCC3=O)ccc2n1CC1(CO)CC1)c1cccc(OC(F)F)c1 [Compound 66, (E)-3-(difluoromethoxy)-N-(1-((1-(hydroxymethyl)cyclopropyl)methyl)-5-(3-oxomorpholino)-1H-benzo[d]imidazol-2(3H)-ylidene)benzamide] | 100 to 1000 | ≤ 100
6 | Cc1cc2c(cc1N1CCOCC1=O)[nH]/c(=N\C(=O)c1cc(F)cc(C(F)(F)F)c1)n2CCCO [Compound 67, (E)-3-fluoro-N-(1-(3-hydroxypropyl)-6-methyl-5-(3-oxomorpholino)-1H-benzo[d]imidazol-2(3H)-ylidene)-5-(trifluoromethyl)benzamide] | ≤ 100 | ≤ 100
7 | Cc1cc2c(cc1N1CCOCC1=O)[nH]/c(=N\C(=O)c1cccc(C#N)c1)n2CCCO [Compound 68, (E)-3-cyano-N-(1-(3-hydroxypropyl)-6-methyl-5-(3-oxomorpholino)-1H-benzo[d]imidazol-2(3H)-ylidene)benzamide] | 100 to 1000 | ≤ 100
8 | Cc1cc2c(cc1N1CCOCC1=O)[nH]/c(=N\C(=O)c1cccc(C(F)F)c1)n2CCCO [Compound 69, (E)-3-(difluoromethyl)-N-(1-(3-hydroxypropyl)-6-methyl-5-(3-oxomorpholino)-1H-benzo[d]imidazol-2(3H)-ylidene)benzamide] | ≤ 100 | ≤ 100
9 | Cc1cc2c(cc1N1CCOCC1=O)[nH]/c(=N\C(=O)c1cccc(C(F)(F)F)c1)n2CCCO [Compound 70, (E)-N-(1-(3-hydroxypropyl)-6-methyl-5-(3-oxomorpholino)-1H-benzo[d]imidazol-2(3H)-ylidene)-3-(trifluoromethyl)benzamide] | 100 to 1000 | ≤ 100
10 | O=C(/N=c1\[nH]c2cc(N3CCOCC3=O)ccc2n1CCCO)c1cnccn1 [Compound 72, (E)-N-(1-(3-hydroxypropyl)-5-(3-oxomorpholino)-1H-benzo[d]imidazol-2(3H)-ylidene)pyrazine-2-carboxamide] | > 1000 | > 1000
11 | COc1cc2c(cc1N1CCOCC1=O)[nH]/c(=N\C(=O)c1cc(F)cc(C(F)(F)F)c1)n2CCCO [Compound 73, (E)-3-fluoro-N-(1-(3-hydroxypropyl)-6-methoxy-5-(3-oxomorpholino)-1H-benzo[d]imidazol-2(3H)-ylidene)-5-(trifluoromethyl)benzamide] | ≤ 100 | ≤ 100
12 | COc1cc2c(cc1N1CCOCC1=O)[nH]/c(=N\C(=O)c1cccc(C#N)c1)n2CCCO [Compound 74, (E)-3-cyano-N-(1-(3-hydroxypropyl)-6-methoxy-5-(3-oxomorpholino)-1H-benzo[d]imidazol-2(3H)-ylidene)benzamide] | ≤ 100 | ≤ 100
13 | COc1cc2c(cc1N1CCOCC1=O)[nH]/c(=N\C(=O)c1cccc(C(F)F)c1)n2CCCO [Compound 75, (E)-3-(difluoromethyl)-N-(1-(3-hydroxypropyl)-6-methoxy-5-(3-oxomorpholino)-1H-benzo[d]imidazol-2(3H)-ylidene)benzamide] | ≤ 100 | ≤ 100
14 | COc1cc2c(cc1N1CCOCC1=O)[nH]/c(=N\C(=O)c1cccc(C(F)(F)F)c1)n2CCCO [Compound 76, (E)-N-(1-(3-hydroxypropyl)-6-methoxy-5-(3-oxomorpholino)-1H-benzo[d]imidazol-2(3H)-ylidene)-3-(trifluoromethyl)benzamide] | ≤ 100 | ≤ 100
15 | O=C(/N=c1\[nH]c2cc(N3CCOCC3=O)ccc2n1CCCO)c1cccnc1 [Compound 77, (E)-N-(1-(3-hydroxypropyl)-5-(3-oxomorpholino)-1H-benzo[d]imidazol-2(3H)-ylidene)nicotinamide] | 100 to 1000 | ≤ 100
16 | Cc1ccc(C(=O)/N=c2\[nH]c3cc(N4CCOCC4=O)ccc3n2CCCO)cc1C(F)(F)F [Compound 78, (E)-N-(1-(3-hydroxypropyl)-5-(3-oxomorpholino)-1H-benzo[d]imidazol-2(3H)-ylidene)-4-methyl-3-(trifluoromethyl)benzamide] | > 1000 | ≤ 100
17 | O=C(/N=c1\[nH]c2cc(N3CCOCC3=O)ccc2n1CCCO)c1cccc(C(F)F)c1 [Compound 79, (E)-3-(difluoromethyl)-N-(1-(3-hydroxypropyl)-5-(3-oxomorpholino)-1H-benzo[d]imidazol-2(3H)-ylidene)benzamide] | ≤ 100 | ≤ 100
18 | O=C(/N=c1\[nH]c2cc(N3CCOCC3=O)ccc2n1C1CCS(=O)(=O)CC1)c1cccc(C(F)F)c1 [Compound 80, (E)-3-(difluoromethyl)-N-(1-(1,1-dioxidotetrahydro-2H-thiopyran-4-yl)-5-(3-oxomorpholino)-1H-benzo[d]imidazol-2(3H)-ylidene)benzamide] | ≤ 100 | ≤ 100
19 | O=C(/N=c1\[nH]c2cc(N3CCOCC3=O)ccc2n1CCCO)c1cc(F)cc(C(F)(F)F)c1 [Compound 81, (E)-3-fluoro-N-(1-(3-hydroxypropyl)-5-(3-oxomorpholino)-1H-benzo[d]imidazol-2(3H)-ylidene)-5-(trifluoromethyl)benzamide] | ≤ 100 | ≤ 100
20 | CS(=O)(=O)c1cccc(C(=O)/N=c2\[nH]c3cc(N4CCOCC4=O)ccc3n2CCCO)c1 [Compound 82, (E)-N-(1-(3-hydroxypropyl)-5-(3-oxomorpholino)-1H-benzo[d]imidazol-2(3H)-ylidene)-3-(methylsulfonyl)benzamide] | 100 to 1000 | ≤ 100
21 | O=C(/N=c1\[nH]c2cc(N3CCOCC3=O)ccc2n1CCCO)c1cccc(-n2cnnn2)c1 [Compound 83, (E)-N-(1-(3-hydroxypropyl)-5-(3-oxomorpholino)-1H-benzo[d]imidazol-2(3H)-ylidene)-3-(1H-tetrazol-1-yl)benzamide] | 100 to 1000 | ≤ 100
22 | O=C(/N=c1\[nH]c2cc(N3CCOCC3=O)ccc2n1CCCO)c1cccc(C(F)(F)F)n1 [Compound 84, (E)-N-(1-(3-hydroxypropyl)-5-(3-oxomorpholino)-1H-benzo[d]imidazol-2(3H)-ylidene)-6-(trifluoromethyl)picolinamide] | > 1000 | 100 to 1000
23 | O=C(/N=c1\[nH]c2cc(N3CCOCC3=O)ccc2n1CCCO)c1cncc(C(F)(F)F)c1 [Compound 85, (E)-N-(1-(3-hydroxypropyl)-5-(3-oxomorpholino)-1H-benzo[d]imidazol-2(3H)-ylidene)-5-(trifluoromethyl)nicotinamide] | 100 to 1000 | ≤ 100
24 | O=C(/N=c1\[nH]c2cc(N3CCOCC3=O)ccc2n1CCCO)c1cccc(C(F)(F)F)c1 [Compound 86, (E)-N-(1-(3-hydroxypropyl)-5-(3-oxomorpholino)-1H-benzo[d]imidazol-2(3H)-ylidene)-3-(trifluoromethyl)benzamide] | 100 to 1000 | ≤ 100
25 | C[S+]([O-])CCCCn1/c(=N/C(=O)c2cccc(C(F)F)c2)[nH]c2cc(N3CCOCC3=O)ccc21 (stereo not shown) [Compound 88] | 100 to 1000 | ≤ 100
26 | CSCCCCn1/c(=N/C(=O)c2cccc(C(F)F)c2)[nH]c2cc(N3CCOCC3=O)ccc21 [Compound 89, (E)-3-(difluoromethyl)-N-(1-(4-(methylthio)butyl)-5-(3-oxomorpholino)-1H-benzo[d]imidazol-2(3H)-ylidene)benzamide] | > 1000 | 100 to 1000
